Assay results: the NIST ThermoML archive (doi:10.1021/je050376y)

Columns and labels:
[1] = 101 kPa, Liquid
[2] = xn = mol fraction of the nth substance listed; details: 101 kPa, Liquid, x2 = 0

OCCO [1,2-ethanediol]
[1]
Details	mass density [kg/m3]	viscosity [mPa·s]
308.15 K	1101.88	11.19
313.15 K	1098.33	9.444
318.15 K	1094.75	7.972
323.15 K	1091.16	6.794
333.15 K	1083.94	5.065
343.15 K	1074.53	3.879
353.15 K	1069.72	3.058

OCCO [1,2-ethanediol] + Cc1ccc(O)cc1
[2]
Details	mass density [kg/m3]	viscosity [mPa·s]
308.15 K	1101.88	11.19
313.15 K	1098.33	9.444
318.15 K	1094.75	7.972
323.15 K	1091.16	6.794
333.15 K	1083.94	5.065
343.15 K	1074.53	3.879
353.15 K	1069.72	3.058

Cc1ccc(O)cc1 [4-methylphenol]
[1]
Details	mass density [kg/m3]	viscosity [mPa·s]
308.15 K	1021.98	8.444
313.15 K	1018.05	6.745
318.15 K	1014.09	5.471
323.15 K	1010.12	4.532
328.15 K	1006.57	3.888
333.15 K	1002.09	3.245
343.15 K	992.07	2.431
353.15 K	986.24	1.891
